Legend:
[1] = test system: phosphorylation of FLT3 and its down-stream effector STAT5; assay: Western blotting of p-FLT3 and p-STAT5 in MV4-11 cells; assay type: cell-based; details: Homo sapiens; at 30 nM treatment, 3 hours, FLT3-ITD positive MV4-11 leukemia cells; read-out: inhibition activity against phosphorylation of FLT3 and its down-stream effector STAT5
Summary of the method: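 MV4-11 cells held overnight in IMDM with 0.1% FBS, then 3 million cells treated with compound for 3 h. Whole lysates immunoblotted for p-FLT3 (Tyr-591), p-STAT5 (Tyr-694) and actin. Band intensities at 30 nM compared to DMSO control; % inhibition = (1 − relative intensity) × 100.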

FLT3-D835Y mutant kinase = biological target: T1, FLT3-D835Y mutant kinase (Homo sapiens, UniProt P36888, D835Y); assay: FLT3-D835Y mutant kinase assay (AlphaScreen); assay type: biochemical; details: read-out: Ranking of IC50 values, FLT3-D835Y
T1 construct: purchased SignalChem
T1 sequence (P36888 27-993 D835Y): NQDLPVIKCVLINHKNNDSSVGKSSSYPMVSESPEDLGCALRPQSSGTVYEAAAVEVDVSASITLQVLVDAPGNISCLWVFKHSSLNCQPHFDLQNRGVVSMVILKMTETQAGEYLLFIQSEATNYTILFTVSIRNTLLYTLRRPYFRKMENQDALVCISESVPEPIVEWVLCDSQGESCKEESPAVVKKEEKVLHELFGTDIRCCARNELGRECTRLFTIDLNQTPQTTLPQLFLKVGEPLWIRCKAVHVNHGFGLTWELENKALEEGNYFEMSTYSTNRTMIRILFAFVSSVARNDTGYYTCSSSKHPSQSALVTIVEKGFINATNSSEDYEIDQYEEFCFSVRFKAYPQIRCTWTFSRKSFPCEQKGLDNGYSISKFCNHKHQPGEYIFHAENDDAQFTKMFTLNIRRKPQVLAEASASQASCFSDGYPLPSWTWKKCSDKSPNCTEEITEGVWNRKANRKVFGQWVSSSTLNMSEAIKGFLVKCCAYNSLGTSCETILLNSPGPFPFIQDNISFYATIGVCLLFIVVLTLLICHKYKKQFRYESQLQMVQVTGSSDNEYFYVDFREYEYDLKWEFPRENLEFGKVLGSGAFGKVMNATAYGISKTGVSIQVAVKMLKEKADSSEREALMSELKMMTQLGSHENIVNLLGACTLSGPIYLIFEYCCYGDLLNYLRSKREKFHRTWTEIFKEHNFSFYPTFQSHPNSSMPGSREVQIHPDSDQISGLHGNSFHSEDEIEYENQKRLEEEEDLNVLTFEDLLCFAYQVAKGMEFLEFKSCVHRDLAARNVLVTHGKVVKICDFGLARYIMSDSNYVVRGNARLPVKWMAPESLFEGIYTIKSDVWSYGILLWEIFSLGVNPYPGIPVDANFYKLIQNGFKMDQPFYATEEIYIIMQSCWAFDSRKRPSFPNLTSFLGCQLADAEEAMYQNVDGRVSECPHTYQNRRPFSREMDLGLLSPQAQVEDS
Summary of the method: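 AlphaScreen readout of biotin-poly(Glu4:Tyr1) phosphorylation by 1 ng recombinant FLT3-D835Y. Conditions were 10 μM ATP, 10 mM MgCl2, MOPS pH 7.0, 30 min at 30 °C, EDTA stop. Compounds were serially diluted in duplicate to derive IC50.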

[2] = test system: THP-1 human acute monocytic leukemia cell with NRAS G12D mutation; assay: THP-1 cell proliferation assay (counter screen); assay type: cell-based; details: Homo sapiens, THP-1 cells, 72 hours treatment, CellTiter96, read-out: anti-proliferation activity THP-1 NRAS N12D, IC50 ranking
Summary of the method: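 Viability measured as 490 nm absorbance after 2–4 h with CellTiter96 AQueous One reagent, following 72 h treatment with rising compound concentrations. THP-1 cells, 5000/well, grown in RPMI 1640 with 10% FBS and 0.05 mM 2-mercaptoethanol at 37° C, 5% CO2, plated overnight before dosing.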

| Structure (SMILES) | IC50 (FLT3-D835Y mutant kinase) [nM] | inhibition at 0.03 µM [1] [%] | IC50 [2] [nM] |
| --- | --- | --- | --- |
| Cn1ncc2ccc(-c3n[nH]c4c3Cc3sc(-c5cc(F)c(CN6CCOCC6)c(F)c5)cc3-4)cc21 [Compound 53, 4-(2,6-difluoro-4-(3-(1-methyl-1H-indazol-6-yl)-1,4-dihydrothieno [2′,3′:4,5]cyclopenta [1,2-c]pyrazol-6-yl)benzyl)morpholine] | 1 to 10 | > 50 | > 10000 |
| Cn1ncc2ccc(-c3n[nH]c4c3Cc3sc(-c5cc(C(=O)N6CCOCC6)ccn5)cc3-4)cc21 [Compound 56, (2-(3-(1-methyl-1H-indazol-6-yl)-1,4-dihydro-thieno[2′,3′:4,5]cyclopenta [1,2-c]pyrazol-6-yl)pyridin-4-yl)(morpholino) methanone] | 1 to 10 | > 50 | > 10000 |
| Cn1ncc2ccc(-c3n[nH]c4c3Cc3sc(C5CCN(C(=O)OC(C)(C)C)CC5)cc3-4)cc21 [Compound 58, tert-butyl-4-(3-(1-methyl-1H-indazol-6-yl)-1,4-dihydrothieno[2′,3′:4,5]cyclopenta[1,2-c]pyrazol-6-yl)piperidine-1-carboxylate] | 1 to 10 | > 50 | > 10000 |
| Cn1ncc2ccc(-c3n[nH]c4c3Cc3sc(-c5ccc(CN6CCNC(=O)C6)cc5)cc3-4)cc21 [Compound 63, 4-(4-(3-(1-methyl-1H-indazol-6-yl)-1,4-dihydro-thieno[2′,3′:4,5]cyclopenta [1,2-c]pyrazol-6-yl)benzyl)piperazin-2-one] | 1 to 10 | > 50 | > 10000 |
| Cn1ncc2ccc(-c3n[nH]c4c3Cc3sc(-c5ccc(CN6CCCC6=O)cc5)cc3-4)cc21 [Compound 64, 1-(4-(3-(1-methyl-1H-indazol-6-yl)-1,4-dihydro-thieno[2′,3′:4,5]cyclopenta [1,2-c]pyrazol-6-yl)benzyl)pyrrolidin-2-one] | 1 to 10 | > 50 | > 10000 |
| Cn1ncc2ccc(-c3n[nH]c4c3Cc3sc(-c5ccc(CCN6CCOCC6=O)cc5)cc3-4)cc21 [Compound 66, 4-(4-(3-(1-methyl-1H-indazol-6-yl)-1,4-dihydro-thieno[2′,3′:4,5]cyclopenta [1,2-c]pyrazol-6-yl)phenethyl)morpholin-3-one] | < 1 | > 50 | > 10000 |
| Cn1ncc2ccc(-c3n[nH]c4c3Cc3sc(-c5ccc(OCCN6CCOCC6)cc5)cc3-4)cc21 [Compound 69, 4-(2-(4-(3-(1-methyl-1H-indazol-6-yl)-1,4-dihydro-thieno[2′,3′:4,5]cyclopenta [1,2-c]pyrazol-6-yl)phenoxy)ethyl)morpholine] | < 1 | > 50 | > 10000 |
| Cn1ncc2ccc(-c3n[nH]c4c3Cc3sc(C#CCN5CCOCC5)cc3-4)cc21 [Compound 71, 4-(3-(3-(1-methyl-1H-indazol-6-yl)-1,4-dihydro-thieno[2′,3′:4,5]cyclopenta [1,2-c]pyrazol-6-yl)prop-2-yn-1-yl)morpholine] | < 1 | > 50 | 1000 to 10000 |

Second part, led by results:

| IC50 (FLT3-D835Y mutant kinase) [nM] | Structure (SMILES) | inhibition at 0.03 µM [1] [%] | IC50 [2] [nM] |
| --- | --- | --- | --- |
| < 1 | Cn1ncc2ccc(-c3n[nH]c4c3Cc3sc(-c5csc(C(=O)N6CCOCC6)c5)cc3-4)cc21 [Compound 48, (4-(3-(1-methyl-1H-indazol-6-yl)-1,4-dihydro-thieno[2′,3′:4,5]cyclopenta [1,2-c]pyrazol-6-yl)thiophen-2-yl) (morpholino)methanone] | > 50 | > 10000 |
| < 1 | CN(C)C(=O)c1ccc(-c2cc3c(s2)Cc2c(-c4ccc5cnn(C)c5c4)n[nH]c2-3)cc1 [Compound 49, N,N-dimethyl-4-(3-(1-methyl-1H-indazol-6-yl)-1,4-dihydrothieno [2′,3′:4,5]cyclopenta [1,2-c]pyrazol-6-yl) benzamide] | > 50 | > 10000 |
| < 1 | CN(C)S(=O)(=O)c1ccc(-c2cc3c(s2)Cc2c(-c4ccc5cnn(C)c5c4)n[nH]c2-3)cc1 [Compound 50, N,N-dimethyl-4-(3-(1-methyl-1H-indazol-6-yl)-1,4-dihydrothieno [2′,3′:4,5]cyclopenta [1,2-c]pyrazol-6-yl) benzenesulfonamide] | > 50 | > 10000 |
| < 1 | Cn1ncc2ccc(-c3n[nH]c4c3Cc3sc(-c5ccc(CN6CCOCC6)s5)cc3-4)cc21 [Compound 51, 4-((5-(3-(1-methyl-1H-indazol-6-yl)-1,4-dihydro-thieno[2′,3′:4,5]cyclopenta [1,2-c]pyrazol-6-yl)thiophen-2-yl)methyl) morpholine] | > 50 | > 10000 |
| < 1 | Cn1ncc2ccc(-c3n[nH]c4c3Cc3sc(-c5csc(CN6CCOCC6)c5)cc3-4)cc21 [Compound 52, 4-((4-(3-(1-methyl-1H-indazol-6-yl)-1,4-dihydro-thieno[2′,3′:4,5]cyclopenta [1,2-c]pyrazol-6-yl)thiophen-2-yl)methyl) morpholine] | > 50 | > 10000 |
| < 1 | C[C@@H]1CN(Cc2ccc(-c3cc4c(s3)Cc3c(-c5ccc6cnn(C)c6c5)n[nH]c3-4)cc2)C[C@H](C)O1 [Compound 54, (2S,6R)-2,6-dimethyl-4-(4-(3-(1-methyl-1H-indazol-6-yl)-1,4-dihydro-thieno[2′,3′:4,5]cyclopenta [1,2-c]pyrazol-6-yl)benzyl)morpholine] | > 50 | > 10000 |
| < 1 | Cn1ncc2ccc(-c3n[nH]c4c3Cc3sc(C5=CCN(C(=O)N6CCOCC6)CC5)cc3-4)cc21 [Compound 57, (4-(3-(1-methyl-1H-indazol-6-yl)-1,4-dihydro-thieno[2′,3′:4,5]cyclopenta [1,2-c]pyrazol-6-yl)-3,6-dihydropyridin-1(2H)-yl) (morpholino)methanone] | > 50 | > 10000 |
| < 1 | Cn1ncc2ccc(-c3n[nH]c4c3Cc3sc(-c5ccc(CN6CCOCC6=O)cc5)cc3-4)cc21 [Compound 59, 4-(4-(3-(1-methyl-1H-indazol-6-yl)-1,4-dihydro-thieno[2′,3′:4,5]cyclopenta [1,2-c]pyrazol-6-yl)benzyl)morpholin-3-one] | > 50 | > 10000 |
| < 1 | Cn1ncc2ccc(-c3n[nH]c4c3Cc3sc(-c5csc(C(=O)N6CCOCC6)n5)cc3-4)cc21 [Compound 60, (4-(3-(1-methyl-1H-indazol-6-yl)-1,4-dihydro-thieno[2′,3′:4,5]cyclopenta [1,2-c]pyrazol-6-yl)thiazol-2-yl)(morpholino) methanone] | > 50 | 1000 to 10000 |
| < 1 | Cn1ncc2ccc(-c3n[nH]c4c3Cc3sc(-c5ccc(CN6CCCCC6=O)cc5)cc3-4)cc21 [Compound 61, 1-(4-(3-(l-methyl-1H-indazol-6-yl)-1,4-dihydro-thieno[2′,3′:4,5]cyclopenta [1,2-c]pyrazol-6-yl)benzyl)piperidin-2-one] | > 50 | > 10000 |
| < 1 | CC1C(=O)N(C)CCN1Cc1ccc(-c2cc3c(s2)Cc2c(-c4ccc5cnn(C)c5c4)n[nH]c2-3)cc1 (stereo not drawn) [Compound 65, 1,3-dimethyl-4-(4-(3-(1-methyl-1H-indazol-6-yl)-1,4-dihydrothieno [2′,3′:4,5]cyclopenta [1,2-c]pyrazol-6-yl)benzyl)piperazin-2-one] | > 50 | > 10000 |
